Assay results reported in patent US10161932B2, “Azetidine-substituted fluorescent compounds” (HOWARD HUGHES MEDICAL INSTITUTE, priority 2014, dated 2018).
Counter-ions that a name gives are not always drawn. Like-named read-outs stand apart in the source and are kept apart here.

Experiments:
[1] = Absorption and fluorescence spectroscopy of dyes; assay type: physicochemical; conditions: for ε (extinction coefficient): aqueous buffer
Description: Phosphate buffered saline (PBS) was at pH 7.4 unless otherwise noted.
Spectroscopy was performed using 1-cm path length, 3.5-mL quartz cuvettes from Starna Cells or 1-cm path length, 1.0-mL quartz microcuvettes from Hellma. All measurements were taken at ambient temperature (22±2° C.) in 10 mM HEPES, pH 7.3 buffer unless otherwise noted. Absorption spectra were recorded on a Cary Model 100 spectrometer (Varian); reported values for extinction coefficients (ε) are averages (n=3). Fluorescence spectra were recorded on a Cary Eclipse fluorometer (Varian). Normalized spectra are shown for clarity.

[2] = Fluorescence lifetime measurement; conditions: for τ: Table 2, 10 mM HEPES pH 7.3 per table footnote
Description: For fluorescence lifetime measurements, a pulse picker (Model 350-160, ConOptics) was placed in the laser beam to reduce the pulse frequency from 80 MHz to 20 MHz. Samples (2 μM dye diluted in 50 mM HEPES, pH 7.2, H2O, or CH3OH) were excited at 830 nm laser wavelength and 6 mW laser power. The emitted light was collected by the fast-timing APD and fed to the single-photon counting board (TimeHarp200; PicoQuant). Timing pulses were obtained from a PIN diode (DET01CFC; ThorLabs) monitoring the 20 MHz pulse train. The temporal impulse response of the system was determined by second harmonic generation of laser pulses using a thin nonlinear crystal in place of a dye sample. The lifetime decay data was fit to a single exponential decay function using a custom MATLAB program.

[3] = Quantum yield measurement (Quantaurus-QY spectrometer); assay type: physicochemical; conditions: for increase in quantum yield / brightness relative to parent N,N-dialkyl dye: azetidine-substituted vs parent fluorophore
Description: All reported quantum yield values were measured in under identical conditions using a Quantaurus-QY spectrometer (C11374, Hamamatsu). Measurements were carried out using dilute samples (A<0.1) and self-absorption corrections were performed using the instrument software. Reported values are averages (n=3).

[4] = tested on: SnapTag-H2B; assay: Nuclear labeling of live HeLa cells expressing SnapTag-H2B; assay type: cell-based
Excerpt: In this Example, an azetidinyl-coumarin label was used for cellular imaging. The performance of a commercial SnapTag ligand (i.e., Snap Cell 430) was compared to a novel azetidinyl derivative (Example 52), which was synthesized from a 7-azetidinyl-coumarin-3-carboxylic acid. Under identical transient transfection, labeling, and imaging conditions, H2B-SnapTag-expressing cells were stained with the red fluorescent nuclear stain DRAQ5 and either Snap Cell 430 or the azetidinyl ligand. Using the DRAQ5 staining as a spatial reference (FIGS. 26 and 27) the intensity of individual nuclei labeled by either SnapTag ligand was measured.
HeLa cells (ATCC) and U2OS cells (ATCC) were cultured in Dulbecco's modified eagle medium (DMEM; Life Technologies) supplemented with 10% v/v fetal bovine serum (FBS; Life Technologies), 1 mM GlutaMax (Life Technologies), and 1 mM sodium pyruvate (Sigma) and maintained at 37° C. in a humidified 5% v/v CO2 environment. These cell lines undergo regular mycoplasma testing by the Janelia Cell Culture Facility. […]
Three separate systems were used to acquire microscopic images. […] Other live-cell single super-resolution imaging experiments were recorded on a custom-built three-camera RAMM frame (ASI) microscope using an 1.4 NA PLAPON 60×OSC objective (Olympus), and a 300 mm focal length tube lens (LAO-300.0, Melles Griot), resulting in 100× overall magnification. […]

Row | ε ([1]; Table 1, 10 mM HEPES pH 7.3) | λem ([1]; Table 1, 10 mM HEPES pH 7.3) [nm] | λmax ([1]; Table 1, 10 mM HEPES pH 7.3) [nm] | ϕ ([3]; Table 1, 10 mM HEPES pH 7.3) | SMILES | ϕ (quantum yield) ([3]; aqueous buffer) | ε (extinction coefficient) [1] [M⁻¹ cm⁻¹] | ε ([1]; Table 3, 10 mM HEPES pH 7.3) | λem ([1]; Table 3, 10 mM HEPES pH 7.3) [nm] | λmax ([1]; Table 3, 10 mM HEPES pH 7.3) [nm] | also measured
1 | – | – | – | – | O=C1OC2(c3ccc(N4CCCCC4)cc3Oc3cc(N4CCCCC4)ccc32)c2ccccc21 [piperidine derivative, reference compound] | – | – | – | – | – | ε ([1]; Table 2, 10 mM HEPES pH 7.3): 80,000 M^−1 cm^−1; λem ([1]; Table 2, 10 mM HEPES pH 7.3): 586 nm; λmax ([1]; Table 2, 10 mM HEPES pH 7.3): 560 nm; τ (fluorescence lifetime) [2]: 0.6 ns; τ [2]: 0.59 ns; ϕ (quantum yield) [3]: 0.10; ϕ ([3]; pH 7.3): 0.10
2 | – | – | – | – | CN(C)c1ccc2c(-c3ccccc3C(=O)[O-])c3ccc(N(C)C)cc3[o+]c2c1 [TMR, tetramethylrhodamine, reference compound] | 0.41 | 78000 | – | – | – | ε ([1]; Table 2, 10 mM HEPES pH 7.3): 78,000 M^−1 cm^−1; λem ([1]; Table 2, 10 mM HEPES pH 7.3): 572 nm; λmax ([1]; Table 2, 10 mM HEPES pH 7.3): 548 nm; τ (fluorescence lifetime) [2]: 2.2 ns; τ [2]: 2.21 ns; ϕ ([3]; pH 7.3): 0.41
3 | – | – | – | – | Cl.N=c1ccc2c(-c3ccccc3C(=O)O)c3ccc(N)cc3oc-2c1 [rhodamine 110, reference compound] | 0.88 | 76000 | – | – | – | ε ([1]; Table 2, 10 mM HEPES pH 7.3): 76,000 M^−1 cm^−1; λem ([1]; Table 2, 10 mM HEPES pH 7.3): 520 nm; λmax ([1]; Table 2, 10 mM HEPES pH 7.3): 497 nm; τ (fluorescence lifetime) [2]: 3.3 ns; τ [2]: 3.26 ns; ϕ ([3]; Table 2, 10 mM HEPES pH 7.3): 0.88
4 | 109,000 M^−1 cm^−1 | 564 | 541 | 0.88 | COC1CN(c2ccc3c(-c4ccccc4C(=O)[O-])c4ccc(=[N+]5CC(OC)C5)cc-4oc3c2)C1 (stereo not drawn) [Example 11, 2-(3,6-Bis(3-methoxyazetidin-1-yl)xanthylium-9-yl)benzoate] | – | – | – | – | – | –
5 | – | – | – | – | CN(C)c1ccc2c(c1)Oc1cc(O)ccc1C21OC(=O)c2ccccc21 (stereo not drawn) [dimethyl rhodol, reference compound] | – | 60000 | 60,000 M^−1 cm^−1 | 546 | 518 | ϕ (quantum yield) [3]: 0.21; ϕ ([3]; pH 7.3): 0.21
6 | – | – | – | – | c1cc2cc3ccc(N4CCC4)cc3nc2cc1N1CCC1 [Example 60, 3,6-Di(azetidin-1-yl)acridine] | 0.52 | – | 47,000 M^−1 cm^−1 | 531 | 492 | ϕ ([3]; Table 3, 10 mM HEPES pH 7.3): 0.52; increase in quantum yield / brightness relative to parent N,N-dialkyl dye [3]: 2.5 fold
7 | 94,000 M^−1 cm^−1 | 549 | 525 | 0.91 | O=C([O-])c1ccccc1-c1c2ccc(=[N+]3CC(F)(F)C3)cc-2oc2cc(N3CC(F)(F)C3)ccc12 [Example 9, 2-(3,6-Bis(3,3-difluoroazetidin-1-yl)xanthylium-9-yl)benzoate] | – | – | – | – | – | –
8 | – | 609 | 585 | 0.78 | CC1(C)C2=CC(=[N+]3CC(F)(F)C3)C=CC2=C(c2ccccc2C(=O)[O-])c2ccc(N3CC(F)(F)C3)cc21 [Example 41, 2-(3,6-Bis(3,3-difluoroazetidin-1-yl)-10,10-dimethylanthracen-9-ylium-9(10H)-yl)benzoate] | – | – | – | – | – | ε ([1]; Table 1, trifluoroethanol containing 0.1% (v/v) trifluoroacetic acid): 156,000^a M^−1 cm^−1
9 | – | – | – | – | Nc1nc(OCc2ccc(CNC(=O)c3cc4ccc(N5CCC5)cc4oc3=O)cc2)c2nc[nH]c2n1 [Example 52, N-(4-(((2-Amino-9H-purin-6-yl)oxy)methyl)benzyl)-7-(azetidin-1-yl)-2-oxo-2H-chromene-3-carboxamide] | – | – | – | – | – | nuclear fluorescence intensity ([4]; DRAQ5 reference): brighter nuclear labeling; median nuclear intensity relative to cells labeled with the commercial compound ([4]; n=50): five-fold higher
10 | 110,000 M^−1 cm^−1 | 572 | 550 | 0.83 | CC1(C)CN(c2ccc3c(-c4ccccc4C(=O)[O-])c4ccc(=[N+]5CC(C)(C)C5)cc-4oc3c2)C1 [Example 8, 2-(3,6-Bis(3,3-dimethylazetidin-1-yl)xanthylium-9-yl)benzoate] | – | – | – | – | – | –
11 | 111,000 M^−1 cm^−1 | 572 | 549 | 0.87 | O=C(O)CC1CN(c2ccc3c(-c4ccccc4C(=O)[O-])c4ccc(=[N+]5CC(CC(=O)O)C5)cc-4oc3c2)C1 (stereo not drawn) [Example 17, 2-(3,6-Bis(3-(carboxymethyl)azetidin-1-yl)xanthylium-9-yl)benzoate] | – | – | – | – | – | –
12 | – | – | – | – | CN(C)c1ccc2cc3ccc(N(C)C)cc3nc2c1 [Acridine Orange, reference compound] | 0.21 | – | 50,000 M^−1 cm^−1 | 528 | 493 | ϕ ([3]; Table 3, 10 mM HEPES pH 7.3): 0.21
13 | 108,000 M^−1 cm^−1 | 568 | 545 | 0.87 | O=C([O-])c1ccccc1-c1c2ccc(=[N+]3CC(C(=O)O)C3)cc-2oc2cc(N3CC(C(=O)O)C3)ccc12 (stereo not drawn) [Example 16, 2-(3,6-Bis(3-carboxyazetidin-1-yl)xanthylium-9-yl)benzoate] | – | – | – | – | – | –
14 | – | – | – | – | c1cc2nc3ccc(=[N+]4CCC4)cc-3oc2cc1N1CCC1 [Example 61, 3,7-Di(azetidin-1-yl)phenoxazin-5-ium trifluoroacetate] | 0.24 | 99000 | 99,000 M^−1 cm^−1 | 661 | 647 | ϕ ([3]; Table 3, 10 mM HEPES pH 7.3): 0.24; increase in quantum yield / brightness relative to parent N,N-dialkyl dye [3]: 3.4 fold

Row | SMILES | ε ([1]; Table 1, 10 mM HEPES pH 7.3) | λem ([1]; Table 1, 10 mM HEPES pH 7.3) [nm] | λmax ([1]; Table 1, 10 mM HEPES pH 7.3) [nm] | ϕ ([3]; Table 1, 10 mM HEPES pH 7.3) | ϕ (quantum yield) ([3]; aqueous buffer) | ε (extinction coefficient) [1] [M⁻¹ cm⁻¹] | ε ([1]; Table 3, 10 mM HEPES pH 7.3) | λem ([1]; Table 3, 10 mM HEPES pH 7.3) [nm] | λmax ([1]; Table 3, 10 mM HEPES pH 7.3) [nm] | also measured
15 | O=C([O-])c1ccccc1-c1c2ccc(=[N+]3CCC3)cc-2oc2cc(N3CCC3)ccc12 [Example 7, 2-(3,6-Di(azetidin-1-yl)xanthylium-9-yl)benzoate] | 101,000 M^−1 cm^−1 | 571 | 549 | 0.88 | 0.88 | – | – | – | – | ε ([1]; Table 2, 10 mM HEPES pH 7.3): 101,000 M^−1 cm^−1; λem ([1]; Table 2, 10 mM HEPES pH 7.3): 571 nm; λmax ([1]; Table 2, 10 mM HEPES pH 7.3): 549 nm; higher extinction coefficient than the other dyes ([1]; rhodamines of Table 2): ~30%; τ (fluorescence lifetime) [2]: 3.8 ns; τ [2]: 3.84 ns; ϕ ([3]; Table 2, 10 mM HEPES pH 7.3): 0.88; brighter than the pyrrolidine derivative ([3]; one-photon excitation): 60%
16 | CC1(C)C2=CC(=[N+]3CCC3)C=CC2=C(c2ccccc2C(=O)[O-])c2ccc(N3CCC3)cc21 [Example 40, 2-(3,6-Di(azetidin-1-yl)-10,10-dimethylanthracen-9-ylium-9(10H)-yl)benzoate] | 99,000 M^−1 cm^−1 | 631 | 608 | 0.67 | 0.67 | 99000 | 99,000 M^−1 cm^−1 | 631 | 608 | ϕ ([3]; Table 3, 10 mM HEPES pH 7.3): 0.67
